Laboratory results: article PMC10269165 (Antimicrobial Agents and Chemotherapy, 2023)
Like-named read-outs stand apart in the source and are kept apart here.

Key:
TcPMT = TcPMT (Toxocara canis, UniProt A0A0B2VTW9); experiment: biochemical; type: biochemical; settings: for Selectivity index (SI) TcPMT: IC50^Cytotoxicity/IC50^Enzyme
Method: (§1) The chemical compounds were obtained from the National Cancer Institute/Developmental Therapeutics Program Open Chemical Repository. […] Compounds were individually reconstituted in molecular biology grade dimethyl sulfoxide (DMSO) from Sigma-Aldrich to a stock concentration of 10 mM and stored at −20°C until use. Initial screening was conducted using recombinant HcPMT1 protein as enzyme in the methyltransferase assay, with test compounds at a final concentration of 40 μM. […] To the positive reaction mixture, instead of test compound, an equivalent volume of DMSO was added. In the negative-control reaction mixture, instead of HcPMT1 and test compound, equivalent volumes of 1× transferase buffer and DMSO, respectively, were added. Detection buffer (100 μL) containing fluorescence substrate was added into each reaction mixture. The reactions were prepared in triplicate wells in 96-well plates. The plates were covered in aluminum foil and incubated at room temperature with agitation for 30 min, followed by reading the fluorescence at 380EX/520EM. The mean percent inhibition (MPI) of the test compound on enzymatic activity was calculated using the following formula: MPI = ΔRFUpositive control − ΔRFUcompounds/ΔRFUpositive control × 100, where the positive control is a reaction without compound but with recombinant PMT protein and a volume of DMSO equivalent to that of compound used in test reactions; the negative control is the reaction without protein and compounds, but with volumes of dialysis buffer and DMSO equivalent to protein and compound added in the test reaction mixtures, respectively; ΔRFUpositive control represents the absolute relative fluorescence units (RFU) for the positive control, which equals RFUpositive control – RFUnegative control; and ΔRFUcompounds represents the absolute RFU value for the sample with the compounds, which equals RFUcompounds – RFUnegative control.
(§2) The enzymatic assay was set up as described above, with the respective PMT protein as enzyme.

AcPMT1 = AcPMT1 (Ancylostoma duodenale, UniProt A0A0C2DEB6); experiment: biochemical; type: biochemical; settings: for Selectivity index (SI) AcPMT1: IC50^Cytotoxicity/IC50^Enzyme
Method: as §1, §2

OdPMT = OdPMT (Oesophagostomum dentatum, UniProt A0A0B1TAL6); experiment: biochemical; type: biochemical; settings: for Selectivity index (SI) OdPMT: IC50^Cytotoxicity/IC50^Enzyme
Method: as §1, §2

HcPMT1 = HcPMT1 (Haemonchus contortus, UniProt U5HK46); experiment: biochemical; type: biochemical; settings: for Selectivity index (SI) HcPMT1: IC50^Cytotoxicity/IC50^Enzyme;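 for Selectivity index (SI) HcPMT1: cytotoxicity IC50 measured in HCT-8 cells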
Method: as §1, §2

DvPMT1 = DvPMT1 (Dictyocaulus viviparus, UniProt A0A0D8Y714); experiment: biochemical; type: biochemical; settings: for Selectivity index (SI) DvPMT1: IC50^Cytotoxicity/IC50^Enzyme
Method: as §1, §2

[1] = tested on: OdPMT-complemented pem1Δ/pem2Δ S. cerevisiae; experiment: Growth inhibition of complemented yeast; type: cell-based, Saccharomyces cerevisiae; settings: read-out: Mean growth inhibition EC50 ± SEM on complemented yeast, OdPMT
Method: (§3) To determine the effect of PMT inhibitors on the growth of PMT- and LacZ-complemented pem1Δpem2Δ S. cerevisiae, the yeast cells were first starved of choline as described above, and the cells were diluted to an OD600 of ~0.6. The PMT-complemented yeast cells were cultured in SG medium (3.4g/L yeast nitrogen base without amino acids, 2% galactose, 30 mg/L histidine, 100 mg/L leucine, 100 mg/L adenine, and 50 mg/L tryptophan) supplemented with 1 mM ethanolamine hydrochloride, while the LacZ-complemented yeast cells were cultured in SG medium supplemented with 1 mM choline chloride. Compounds that depicted cross-inhibitory activity against PMT proteins in vitro were added at various concentrations to the cultures. As a negative control, DMSO (at a final concentration not exceeding 2% [vol/vol]) was added to yeast cultures designated control cultures. The cultures were incubated at 30°C with shaking at 275 rpm for 4 days. On a daily basis during the course of culture, 200-μL portions of culture aliquots were taken, and their OD600s were measured using a microplate reader. In preliminary work, we had observed that the growth of PMT- and LacZ-complemented pem1Δpem2Δ S. cerevisiae plateaued at 3 to 4 days of culture. Therefore, to determine the inhibitory effect of nematode PMT inhibitors on the growth of PMT- and LacZ-complemented pem1Δpem2Δ S. cerevisiae, measurements taken on day 3 were used. The results were presented as percentage of growth rate using the following formula: PGR = growth rate (plus inhibitor)/growth rate (minus inhibitor) × 100 where the percent growth rate (PGR) is the growth rate of inhibitor-treated PMT- or LacZ- complemented Pem1Δpem2Δ S. cerevisiae, considering the growth rate of untreated PMT- or LacZ- complemented Pem1Δpem2Δ S. cerevisiae is 100%; the growth rate = ΔA600^Day 3/ΔA600^Day 0; ΔA600^Day 0 is the absolute value of A600 of PMT- or LacZ- complemented pem1Δ/pem2Δ S. cerevisiae at day 0, which equals the A600 of the culture minus the A600 of the growth medium only; ΔA600^Day 3 is the absolute value of the A600 of PMT- or LacZ complemented pem1Δ/pem2Δ S. cerevisiae at day 3, which equals the A600 of the culture at day 3 minus the A600 of growth medium only; the growth rate (plus inhibitor) is the growth rate of PMT- or -LacZ complemented pem1Δpem2Δ S. cerevisiae in the presence of test compound; and the growth rate (minus inhibitor) is the growth rate of the PMT- or LacZ complemented pem1Δ/pem2Δ S. cerevisiae in the absence of test compound, but with a volume of DMSO equal to that of compound added in the treated culture. The dose-response curves were generated with GraphPad Prism software and IC50 concentrations of the compounds in PMT- and LacZ-complemented yeast cells derived.

[2] = tested on: DvPMT1+2-complemented pem1Δ/pem2Δ S. cerevisiae; experiment: Growth inhibition of complemented yeast; type: cell-based, Saccharomyces cerevisiae; settings: read-out: Mean growth inhibition EC50 ± SEM on complemented yeast, DvPMT1+2
Method: as §3

[3] = tested on: LacZ-complemented pem1Δ/pem2Δ S. cerevisiae; experiment: Growth inhibition of complemented yeast; type: cell-based, Saccharomyces cerevisiae; settings: for EC50: Saccharomyces cerevisiae, 72 h, read-out: Mean growth inhibition EC50 ± SEM on complemented yeast, LacZ; for effect on LacZ-expressing mutant yeast: medium with choline
Method: as §3

[4] = tested on: AcPMT1+2-complemented pem1Δ/pem2Δ S. cerevisiae; experiment: Growth inhibition of complemented yeast; type: cell-based, Saccharomyces cerevisiae; settings: read-out: Mean growth inhibition EC50 ± SEM on complemented yeast, AcPMT1+2
Method: as §3

[5] = tested on: TcPMT-complemented pem1Δ/pem2Δ S. cerevisiae; experiment: Growth inhibition of complemented yeast; type: cell-based, Saccharomyces cerevisiae; settings: read-out: Mean growth inhibition EC50 ± SEM on complemented yeast, TcPMT
Method: as §3

[6] = tested on: AsPMT-complemented pem1Δ/pem2Δ S. cerevisiae; experiment: Growth inhibition of complemented yeast; type: cell-based, Saccharomyces cerevisiae; settings: medium with ethanolamine, no choline, day 3, read-out: Mean growth inhibition EC50 ± SEM on complemented yeast, AsPMT
Method: as §3

[7] = read-out: Mean IC50 ± SEM, Enzyme TcPMT
[8] = read-out: Mean IC50 ± SEM, Enzyme AcPMT1
[9] = read-out: Mean IC50 ± SEM, Enzyme OdPMT
[10] = read-out: Mean IC50 ± SEM, Enzyme HcPMT1
[11] = read-out: Mean IC50 ± SEM, Enzyme DvPMT1
[12] = medium with ethanolamine, no choline, day 3
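Throughout, for Selectivity index (SI) AcPMT1: cytotoxicity IC50 measured in HCT-8 cells.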
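Throughout, for Selectivity index (SI) DvPMT1: cytotoxicity IC50 measured in HCT-8 cells.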
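Throughout, for Selectivity index (SI) OdPMT: cytotoxicity IC50 measured in HCT-8 cells.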
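Throughout, for Selectivity index (SI) TcPMT: cytotoxicity IC50 measured in HCT-8 cells.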

Sequence of TcPMT (A0A0B2VTW9 entry or part of it): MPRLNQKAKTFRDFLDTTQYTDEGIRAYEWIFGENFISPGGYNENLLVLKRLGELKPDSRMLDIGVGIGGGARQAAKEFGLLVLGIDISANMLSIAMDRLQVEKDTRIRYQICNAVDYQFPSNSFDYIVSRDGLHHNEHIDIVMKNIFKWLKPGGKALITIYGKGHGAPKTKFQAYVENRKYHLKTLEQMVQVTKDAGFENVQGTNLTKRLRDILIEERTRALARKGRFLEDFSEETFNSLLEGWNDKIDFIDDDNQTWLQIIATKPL
Sequence of OdPMT (A0A0B1TAL6 entry or part of it): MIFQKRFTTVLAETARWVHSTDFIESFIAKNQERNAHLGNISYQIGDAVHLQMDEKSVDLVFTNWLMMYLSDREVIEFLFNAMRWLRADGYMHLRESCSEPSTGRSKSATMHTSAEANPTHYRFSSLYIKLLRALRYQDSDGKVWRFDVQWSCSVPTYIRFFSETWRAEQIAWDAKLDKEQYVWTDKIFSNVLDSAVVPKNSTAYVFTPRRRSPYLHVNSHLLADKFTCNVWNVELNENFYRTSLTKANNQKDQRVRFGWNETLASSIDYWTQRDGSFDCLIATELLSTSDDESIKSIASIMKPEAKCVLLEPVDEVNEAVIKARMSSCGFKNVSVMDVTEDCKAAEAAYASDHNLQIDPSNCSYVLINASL
Sequence of HcPMT1 (U5HK46 entry or part of it): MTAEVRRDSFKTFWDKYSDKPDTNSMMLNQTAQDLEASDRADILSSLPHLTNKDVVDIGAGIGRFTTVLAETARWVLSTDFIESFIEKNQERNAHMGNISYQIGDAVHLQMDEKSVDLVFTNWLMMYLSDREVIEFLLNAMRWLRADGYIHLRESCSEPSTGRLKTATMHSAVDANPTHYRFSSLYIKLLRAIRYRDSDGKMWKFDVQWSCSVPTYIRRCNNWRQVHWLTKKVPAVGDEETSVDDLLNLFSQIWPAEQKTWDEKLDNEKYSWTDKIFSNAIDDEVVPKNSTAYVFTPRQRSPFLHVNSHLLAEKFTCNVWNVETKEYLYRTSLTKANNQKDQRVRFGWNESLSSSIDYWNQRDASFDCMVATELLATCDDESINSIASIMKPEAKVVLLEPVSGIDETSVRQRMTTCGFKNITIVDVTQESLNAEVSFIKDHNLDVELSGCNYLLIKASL
Sequence of AcPMT1 (A0A0C2DEB6 entry or part of it): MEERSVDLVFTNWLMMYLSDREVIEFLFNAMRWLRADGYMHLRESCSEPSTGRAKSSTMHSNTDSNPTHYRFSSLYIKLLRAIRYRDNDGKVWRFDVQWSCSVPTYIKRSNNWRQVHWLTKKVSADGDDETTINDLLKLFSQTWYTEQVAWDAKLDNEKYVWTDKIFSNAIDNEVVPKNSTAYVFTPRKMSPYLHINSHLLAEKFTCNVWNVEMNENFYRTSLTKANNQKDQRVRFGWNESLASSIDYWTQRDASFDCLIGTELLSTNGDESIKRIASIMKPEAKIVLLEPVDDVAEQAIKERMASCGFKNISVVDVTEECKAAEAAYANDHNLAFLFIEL
Sequence of DvPMT1 (A0A0D8Y714 entry or part of it): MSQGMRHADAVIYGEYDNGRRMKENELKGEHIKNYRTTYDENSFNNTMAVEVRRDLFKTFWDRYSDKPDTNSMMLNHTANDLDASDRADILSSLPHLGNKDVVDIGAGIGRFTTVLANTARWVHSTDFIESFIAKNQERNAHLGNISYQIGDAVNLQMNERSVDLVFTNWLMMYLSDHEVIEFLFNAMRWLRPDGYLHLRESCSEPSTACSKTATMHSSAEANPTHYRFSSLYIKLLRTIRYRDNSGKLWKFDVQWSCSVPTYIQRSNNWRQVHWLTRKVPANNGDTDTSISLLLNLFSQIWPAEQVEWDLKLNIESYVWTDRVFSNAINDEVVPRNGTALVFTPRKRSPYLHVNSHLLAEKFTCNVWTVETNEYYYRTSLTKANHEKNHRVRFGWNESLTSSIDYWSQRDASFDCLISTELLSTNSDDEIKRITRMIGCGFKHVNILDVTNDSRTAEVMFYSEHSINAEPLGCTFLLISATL

| Compound | Selectivity index (SI) TcPMT (TcPMT) | IC50 (TcPMT; [7]) [µM] | Selectivity index (SI) AcPMT1 (AcPMT1) | IC50 (AcPMT1; [8]) [µM] | Selectivity index (SI) OdPMT (OdPMT) | IC50 (OdPMT; [9]) [µM] | Selectivity index (SI) HcPMT1 (HcPMT1) | IC50 (HcPMT1; [10]) [µM] | Selectivity index (SI) DvPMT1 (DvPMT1) | IC50 (DvPMT1; [11]) [µM] | effect on LacZ-expressing mutant yeast [3] | EC50 [1, 12] [µM] | EC50 [2, 12] [µM] | EC50 [4, 12] [µM] | EC50 [5, 12] [µM] | EC50 [6] [µM] | other results |
| --- | --- | --- | --- | --- | --- | --- | --- | --- | --- | --- | --- | --- | --- | --- | --- | --- | --- |
| O=c1c(O)cccc2cc(O)c(O)c(O)c12 [NSC35676, purpurogallin] | 12.35 | 45.9 ± 2.9 | 49.02 | 11.5 ± 0.94 | 33.80 | 16.8 ± 0.41 | 27.96 | 20.2 ± 1.64 | 13.44 | 42.1 ± 3.16 | no or negligible inhibitory effect |  |  |  |  |  | EC50 ([1]; Saccharomyces cerevisiae, 72 h): 3.98 ± 1.08 µM; EC50 ([2]; Saccharomyces cerevisiae, 72 h): 12.9 ± 1.58 µM; EC50 [3]: 6.02 ± 0.25 µM; EC50 ([4]; Saccharomyces cerevisiae, 72 h): 17.6 ± 3.72 µM; EC50 ([5]; Saccharomyces cerevisiae, 72 h): 22.9 ± 5 µM; EC50 ([6]; Saccharomyces cerevisiae, 72 h): 15.1 ± 0.7 µM |
| CO[C@@]12[C@H](COC(N)=O)C3=C(C(=O)C(C)=C(N)C3=O)N1C[C@H]1[C@@H]2N1C (some centres unmarked) [NSC56410] | 2.23 |  | 2.75 |  | 0.90 |  | 3.52 |  | 0.10 |  | no or negligible inhibitory effect |  |  |  |  |  | IC50 (TcPMT): 84.5 ± 6.53 µM; IC50 (AcPMT1): 68.4 ± 5.39 µM; IC50 (OdPMT): 210 ± 73.5 µM; IC50 (HcPMT1): 53.5 ± 5.85 µM; IC50 (DvPMT1): 1920 µM; EC50 ([1]; Saccharomyces cerevisiae, 72 h): 37.6 ± 4.87 µM; EC50 ([2]; Saccharomyces cerevisiae, 72 h): 45.6 ± 7.61 µM; EC50 [3]: 50.4 ± 13.2 µM; EC50 ([4]; Saccharomyces cerevisiae, 72 h): 40.3 ± 9.42 µM; EC50 ([5]; Saccharomyces cerevisiae, 72 h): 45.1 ± 3.97 µM; EC50 ([6]; Saccharomyces cerevisiae, 72 h): 50.7 ± 3.87 µM |
| COc1ccc(-c2c(C)c(C(=O)O)nc(-c3ccc4c(O)c(OC)c5c(c4n3)=NC(C)(C)N=5)c2N)c(O)c1OC [NSC62709] | 10.83 | 27.6 ± 1.26 | 22.31 | 13.4 ± 1.3 | 9.39 | 31.8 ± 1.8 | 10.86 | 27.5 ± 1.97 | 10.24 | 29.2 ± 2.13 | no or negligible inhibitory effect | 19.5 ± 2.56 | 25.6 ± 5.07 | 26.9 ± 7.63 | 29.8 ± 7.61 | 15.4 ± 2.13 |  |
| COc1cc(C)c2c(c1C=O)Oc1c(c(C)c(O)c3c1C(O)OC3=O)OC2=O (centres unmarked) [NSC87511] | 0.35 | 496 ± 184 | 2.61 | 65.8 ± 9.78 | 0.35 | 488 ± 162 | 1.10 | 157 ± 26 | 0.34 | 504 ± 188 | no or negligible inhibitory effect | 57.9 ± 5.18 | 17.1 ± 1.15 | 26.4 ± 3.45 | 58.2 ± 7 | 25.9 ± 1.24 |  |
| CO[C@H]1/C=C/O[C@@]2(C)Oc3c(C)c(O)c4c(O)c(cc(O)c4c3C2=O)NC(=O)/C(C)=C\C=C\[C@H](C)[C@H](O)[C@@H](C)[C@@H](O)[C@@H](C)[C@H](OC(C)=O)[C@@H]1C [NSC133100] | 1.03 | 99.1 ± 9 | 3.23 | 31.5 ± 2.25 | 1.07 | 94.7 ± 5.03 | 3.67 | 27.8 ± 1.71 | 1.15 | 88.2 ± 4.14 | no or negligible inhibitory effect | 36.6 ± 8.4 | 35.7 ± 3.67 | 35.1 ± 5.01 | 60.1 ± 5.85 | 23.4 ± 1.85 |  |
| CO[C@@H]1/C=C\O[C@]2(C)Oc3c(C)c(O)c4c(O)c(c(CN(C)C)c(O)c4c3C2=O)NC(=O)/C(C)=C\C=C[C@@H](C)[C@@H](O)[C@H](C)[C@@H](O)[C@H](C)[C@H](OC(C)=O)[C@@H]1C [NSC145612] | 2.77 | 109 ± 12.6 | 11.05 | 27.4 ± 2.92 | 9.11 | 33.2 ± 2.26 | 10.83 | 27.9 ± 1.57 | 5.49 | 55.1 ± 4.46 | no or negligible inhibitory effect | 32.8 ± 2.64 | 23 ± 2.15 | 29.3 ± 2.54 | 27.2 ± 7.7 | 28.9 ± 4.38 |  |
| CO[C@@H]1/C=C/O[C@@]2(C)Oc3c(C)c(O)c4c(c3C2=O)C(=N[C@@H]2CC[C@@H](O)O[C@H]2C)C=C(NC(=O)/C(C)=C\C(=O)[C@@H]2C[C@@H]2[C@H](O)[C@@H](C)[C@@H](O)[C@@H](C)[C@H](OC(C)=O)[C@@H]1C)C4=O [NSC177383] | 2.07 | 41.3 ± 2.8 | 5.76 | 14.8 ± 2.06 | 3.20 | 26.7 ± 2 | 3.93 | 21.7 ± 2.05 | 1.80 | 47.6 ± 7.41 |  | 19.8 ± 3.9 | 15.4 ± 1.91 | 21.9 ± 7.31 | 11.8 ± 1.43 | 12.3 ± 1.11 |  |
